# Assay results: patent US7705016B2, “Regulation of food intake by modulation of long-chain fatty acyl-CoA levels in the hypothalamus” (Albert Einstein College of Medicine of Yeshiva University, priority 2003, dated 2010)
# Legend:
# CPT1M mRNA = CPT1M mRNA in hypothalamic nuclei micro punches by real-time PCR after ICV injection; format: in vivo, rat; details: 3 days after ICV injection
# Method: Surgical implantation of ICV cannulae was performed on day 1 (˜3 weeks prior to the in vivo study). Full recovery of body weight and food intake was achieved by day 7. Rats randomized for ribozyme treatment received an ICV injection of CPT1L-Ribo, CPT inhibitors or controls on day 17. The experimental group treated with TDGA received ICV injection of the inhibitor on day 21, 6 hr prior to the harvesting of brains. Panels B. and C. show quantitation of CPT1L (B) and CPT1M (C) mRNA by real-time PCR. RNA was purified from individual hypothalamic nuclei (PVN, LHA, and arcuate), which were obtained by micro punch technique 3 days after ICV injection of pTarget control (▪; N=4) or CPT1LRibo (□; N=5). […] CPT1 activity was measured in the particulate fraction of protein extracts from animals treated with ICV control injections (▪; N=6, receiving aCSF+2% DMSO or Control Ribo), TDGA ( ?; N=6), or CPTL-Ribo (□; N=5). […] Levels of stearoyl-CoA (F) and oleyl-CoA (E) respectively were measured by HPLC in arcuate of rats injected ICV with control compound (▪; ST1340) or ST1326 (□).
# ICV catheters were implanted in male Sprague-Dawley rats by stereotaxic surgery (Obici et al., 2002a; Obici et al., 2001; Liu et al., 1998). […] Thus, we next measured CPT1 activity in ARC and in whole hypothalamus. […]
# Quantitation of CPT1 and neuropeptides mRNA by Northern and real-time PCR. […]
# [1] = test system: NPY, AgRP and POMC mRNA in ARC; experiment: Neuropeptide (NPY, AgRP, POMC) mRNA in ARC by real-time PCR; format: in vivo, rat; details: ICV
# Source text: In order to begin investigating the mechanisms responsible for the anorectic properties of ARC CPT1 inhibition, we next analyzed the effect of CPT1L-Ribo on the gene expression of key ARC peptides. […] Overall, these anorectic effects support the notion that changes in the neuronal levels of LC-CoAs may directly control food intake via their action on discrete hypothalamic centers. Furthermore, increases in LC-CoAs levels in selective hypothalamic neurons are likely to account for the potent effects of oleic acid and of FAS inhibitors on food intake (Loftus et al., 2000; Obici et al., 2002a; Makimura et al., 2001; Shimokawa et al., 2002).
# Total RNA was isolated with Trizol (Invitrogen, Carlsbad, Calif.) from individual hypothalamic nuclei (i.e. Arcuate, PVN etc.). Single strand cDNA synthesis and real-time PCR reactions were performed as previously described (Obici et al., 2002b). CPT1L and CPT1M mRNA specific primers contained the following sequences: CPT1L forward (F) 5′-[…]-3′ (SEQ ID NO:5) and reverse (R) primer, 5′-[…]-3′ (SEQ ID NO:6); CPT1M F 5′-[…]-3′ (SEQ ID NO:7) and R 5′-[…]-3′ (SEQ ID NO:8). Hypothalamic neuropeptides expression was performed by real-time PCR using the following primers: NPY-F 5′-[…]-3′ (SEQ ID NO:9), R 5′-[…]-3′ (SEQ ID NO:10), POMC-F 5′-CCAGGCAACGGAGATGAAC-3′ (SEQ ID NO:11), R 5′-TCACTGGCCCTTCTTGTGC-3′ (SEQ ID NO:12), AgRP-F 5′-[…]-3′ (SEQ ID NO:13), R 5′-[…]-3′ (SEQ ID NO:14), and β-actin F 5′-[…]-3′ (SEQ ID NO:15), R 5′-[…]-3′ (SEQ ID NO:16). Transcript levels are expressed as copy number of each gene normalized to copy number for β-actin. Copy number for each transcript was measured against a standard curve, which was obtained by PCR runs of each primer set with serial dilutions of a plasmid containing the target template sequences.
substance,measurement,setting,value
"CPT1L-Ribo: plasmid (pTarget, CMV promoter) expressing a hammerhead ribozyme that specifically cleaves rat CPT1L mRNA, complexed to PEI for ICV injection (DNA CUGUACCAAAGAGCUGUAGAGUCCGUGAGGACGAAACGCCGCUCACAAUG)",CPT1M mRNA expression in hypothalamic nuclei,CPT1M mRNA,not appreciably altered
same,expression of POMC in the ARC,[1],not significantly altered
same,AgRP mRNA in the ARC,[1]; compared with Control-Ribo,marked decrease
same,NPY mRNA in the ARC,[1]; compared with Control-Ribo,marked decrease
